From PubChem BioAssay (NCI)
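Assay format: 96-well plates, 48-hour exposure. TGI is the concentration that stops growth completely.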

What was measured:
Assay in all cases: NCI tumour cell line growth inhibition, 48 h
786-0 renal = system: 786-0 renal
A498 renal = system: A498 renal
A549 NSCLC = system: A549 NSCLC
ACHN renal = system: ACHN renal
BT-549 breast = system: BT-549 breast
CAKI-1 renal = system: CAKI-1 renal
CCRF-CEM leukemia = system: CCRF-CEM leukemia
COLO 205 colon = system: COLO 205 colon
DU-145 prostate = system: DU-145 prostate
EKVX NSCLC = system: EKVX NSCLC
HCC-2998 colon = system: HCC-2998 colon
HCT-116 colon = system: HCT-116 colon
HCT-15 colon = system: HCT-15 colon
HL-60(TB) leukemia = system: HL-60(TB) leukemia
HOP-62 NSCLC = system: HOP-62 NSCLC
HOP-92 NSCLC = system: HOP-92 NSCLC
HS 578T breast = system: HS 578T breast
HT29 colon = system: HT29 colon
IGROV1 ovarian = system: IGROV1 ovarian
K-562 leukemia = system: K-562 leukemia
KM12 colon = system: KM12 colon
LOX IMVI melanoma = system: LOX IMVI melanoma
M14 melanoma = system: M14 melanoma
MALME-3M melanoma = system: MALME-3M melanoma
MCF7 breast = system: MCF7 breast
MDA-MB-231 breast = system: MDA-MB-231 breast
MDA-MB-435 = system: MDA-MB-435
MDA-N = system: MDA-N
MOLT-4 leukemia = system: MOLT-4 leukemia
NCI-H226 lung = system: NCI-H226 lung
NCI-H23 lung = system: NCI-H23 lung
NCI-H460 lung = system: NCI-H460 lung
NCI/ADR-RES ovarian = system: NCI/ADR-RES ovarian
OVCAR-3 ovarian = system: OVCAR-3 ovarian
OVCAR-4 ovarian = system: OVCAR-4 ovarian
OVCAR-5 ovarian = system: OVCAR-5 ovarian
OVCAR-8 ovarian = system: OVCAR-8 ovarian
PC-3 prostate = system: PC-3 prostate
RPMI-8226 leukemia = system: RPMI-8226 leukemia
RXF 393 renal = system: RXF 393 renal
SF-268 CNS = system: SF-268 CNS
SF-295 CNS = system: SF-295 CNS
SF-539 CNS = system: SF-539 CNS
SK-MEL-2 melanoma = system: SK-MEL-2 melanoma
SK-MEL-28 melanoma = system: SK-MEL-28 melanoma
SK-MEL-5 melanoma = system: SK-MEL-5 melanoma
SK-OV-3 ovarian = system: SK-OV-3 ovarian
SN12C renal = system: SN12C renal
SNB-19 CNS = system: SNB-19 CNS
SNB-75 CNS = system: SNB-75 CNS
SR leukemia = system: SR leukemia
SW-620 colon = system: SW-620 colon
T-47D breast = system: T-47D breast
TK-10 renal = system: TK-10 renal
U251 CNS = system: U251 CNS
UACC-257 melanoma = system: UACC-257 melanoma
UACC-62 melanoma = system: UACC-62 melanoma
UO-31 renal = system: UO-31 renal

## CC(C)=CCC[C@@H](C)C1=C(O)C(Nc2ccccc2)=C(C)C(=O)C1=O
786-0 renal
  TGI: > 100 µM
A498 renal
  TGI: 87.1 µM
A549 NSCLC
  TGI: 45.5 µM
ACHN renal
  TGI: 36.1 µM
BT-549 breast
  TGI: > 100 µM
CAKI-1 renal
  TGI: 56.8 µM
CCRF-CEM leukemia
  TGI: 5.78 µM
COLO 205 colon
  TGI: > 61.8 µM
DU-145 prostate
  TGI: > 74.2 µM
EKVX NSCLC
  TGI: > 100 µM
HCC-2998 colon
  TGI: > 100 µM
HCT-116 colon
  TGI: > 75.6 µM
HCT-15 colon
  TGI: > 78.7 µM
HL-60(TB) leukemia
  TGI: 24.4 µM
HOP-62 NSCLC
  TGI: > 55.2 µM
HOP-92 NSCLC
  TGI: > 78.3 µM
HS 578T breast
  TGI: > 100 µM
HT29 colon
  TGI: > 96.3 µM
IGROV1 ovarian
  TGI: > 100 µM
K-562 leukemia
  TGI: > 80.9 µM
KM12 colon
  TGI: > 100 µM
LOX IMVI melanoma
  TGI: > 100 µM
M14 melanoma
  TGI: 34.9 µM
MALME-3M melanoma
  TGI: > 75 µM
MCF7 breast
  TGI: > 86 µM
MDA-MB-231 breast
  TGI: > 100 µM
MDA-MB-435
  TGI: > 100 µM
MDA-N
  TGI: > 100 µM
MOLT-4 leukemia
  TGI: > 72.2 µM
NCI-H226 lung
  TGI: > 73.4 µM
NCI-H23 lung
  TGI: 98.7 µM
NCI-H460 lung
  TGI: > 64.5 µM
NCI/ADR-RES ovarian
  TGI: 45.6 µM
OVCAR-3 ovarian
  TGI: > 52.2 µM
OVCAR-4 ovarian
  TGI: > 100 µM
OVCAR-5 ovarian
  TGI: > 100 µM
OVCAR-8 ovarian
  TGI: > 100 µM
PC-3 prostate
  TGI: > 100 µM
RPMI-8226 leukemia
  TGI: > 73.3 µM
RXF 393 renal
  TGI: 60.7 µM
SF-268 CNS
  TGI: > 100 µM
SF-295 CNS
  TGI: 32.4 µM
SF-539 CNS
  TGI: 84.8 µM
SK-MEL-2 melanoma
  TGI: > 89.9 µM
SK-MEL-28 melanoma
  TGI: > 100 µM
SK-MEL-5 melanoma
  TGI: 55.6 µM
SK-OV-3 ovarian
  TGI: > 96.2 µM
SN12C renal
  TGI: > 100 µM
SNB-19 CNS
  TGI: > 100 µM
SNB-75 CNS
  TGI: > 85.8 µM
SR leukemia
  TGI: > 100 µM
SW-620 colon
  TGI: > 100 µM
T-47D breast
  TGI: 59.7 µM
TK-10 renal
  TGI: > 100 µM
U251 CNS
  TGI: > 100 µM
UACC-257 melanoma
  TGI: > 100 µM
UACC-62 melanoma
  TGI: 54.5 µM
UO-31 renal
  TGI: 46.4 µM
